According to the supplement of paper PMC10307832:

How the values were obtained:
Test in all cases: relative viability (nuclei count vs DMSO), 5 days (fraction); higher = more cells survive
[1] = compound: O=C(O)c1ccc2c(c1)nc(Nc1cccc(Cl)c1)c1ccncc12 [Silmitasertib]
In short: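 Acceptance criteria were a control CV below 25% and at least one doubling per plate. Lung cancer cell lines in 1536-well plates got five library-drug doses (not always all listed) √10 apart by pinning and were left 5 days with no medium change. Viability divides treated-well nuclei by vehicle-well nuclei and is the median across plates. Nuclei were counted by MetaXpress from 4× Hoechst images.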

[2] = compound: O=C(O)c1ccc2c(c1)nc(Nc1cccc(Cl)c1)c1ccncc12 [Silmitasertib] + C[C@]1(O)C[C@@H](c2nc(-c3ccc4ccc(-c5ccccc5)nc4c3)c3c(N)nccn32)C1 [Linsitinib] (partner 1 µM)
In short: (§1)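 Lung cancer cell lines were pin-tool dosed in 1536-well plates on the day after seeding, with either a lone drug or a fixed anchor-drug dose plus five library-drug doses (not always all listed) in √10 steps. Nuclei were counted on 4× images after 5 days. Relative viability is the ratio of treated-well to vehicle-well nuclei counts, with each value a median of duplicate plates.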

[3] = compound: O=C(O)c1ccc2c(c1)nc(Nc1cccc(Cl)c1)c1ccncc12 [Silmitasertib] + COc1cc2c(Oc3ccc(NC(=O)C4(C(=O)Nc5ccc(F)cc5)CC4)cc3F)ccnc2cc1OCCCN1CCOCC1 [Foretinib] (partner 0.25 µM)
In short: as §1

[4] = compound: O=C(O)c1ccc2c(c1)nc(Nc1cccc(Cl)c1)c1ccncc12 [Silmitasertib] + C[C@@H](Oc1cc(-c2cnn(C3CCNCC3)c2)cnc1N)c1c(Cl)ccc(F)c1Cl [Crizotinib] (partner 1 µM)
In short: as §1

[5] = compound: O=C(O)c1ccc2c(c1)nc(Nc1cccc(Cl)c1)c1ccncc12 [Silmitasertib] + N=C(N)NC(=N)NCCc1ccccc1 [Phenformin] (partner 250 µM)
In short: as §1

Row | Cell Line | relative viability ([1]; 0.04 µM) | relative viability ([1]; 0.4 µM) | relative viability ([1]; 1.265 µM) | relative viability ([1]; 4 µM) | relative viability ([2]; first compound 0.04 µM) | relative viability ([2]; first compound 0.4 µM) | relative viability ([2]; first compound 1.265 µM) | relative viability ([2]; first compound 4 µM) | relative viability ([3]; first compound 0.04 µM) | relative viability ([3]; first compound 1.265 µM) | relative viability ([3]; first compound 4 µM) | relative viability ([4]; first compound 0.04 µM) | relative viability ([4]; first compound 0.4 µM) | relative viability ([4]; first compound 1.265 µM) | relative viability ([4]; first compound 4 µM) | relative viability ([5]; first compound 0.04 µM) | relative viability ([5]; first compound 1.265 µM) | relative viability ([5]; first compound 4 µM) | relative viability ([3]; first compound 0.4 µM) | relative viability ([5]; first compound 0.4 µM)
1 | NCI-H2228 | 0.949 | 0.715 | 1.12 | 1.06 | 0.787 | 0.548 | 0.786 | 0.628 | 1 | 0.926 | 1.1 | 0.497 | 0.495 | 0.449 | 0.374 | 0.409 | 0.258 | 0.371 | – | –
2 | NCI-H838 | 1.03 | 0.747 | 0.925 | 0.678 | 1.09 | – | 0.899 | 0.608 | 1.16 | 0.996 | 0.589 | 0.941 | – | 0.861 | 0.511 | 0.708 | 0.513 | 0.362 | – | –
3 | EMC-BAC-2 | 1.11 | 0.806 | 0.605 | 0.44 | 0.891 | 0.769 | 0.709 | 0.686 | 1.04 | 0.577 | 0.411 | 0.847 | 0.701 | 0.653 | 0.721 | 0.578 | 0.381 | 0.301 | 0.861 | 0.493
4 | LU99A | 1.03 | 1.09 | 0.986 | 0.752 | 0.574 | 0.632 | 0.396 | 0.361 | 0.823 | 0.844 | 0.738 | 0.583 | 0.725 | 0.558 | 0.591 | 0.883 | 0.848 | 0.518 | 0.833 | 0.883
5 | PC-3 [JPC-3] | 1.04 | 0.812 | 1.1 | 0.953 | 0.98 | 0.964 | 1.03 | 0.986 | 1.12 | 1.14 | 0.998 | 0.968 | 0.868 | 1.03 | 0.999 | 0.475 | 0.468 | 0.424 | 0.852 | 0.398
6 | NCI-H596 | 0.958 | 0.792 | 0.947 | 0.658 | 1.09 | 1.07 | 0.839 | 0.933 | 0.817 | 0.787 | 0.871 | 1.01 | 1.01 | 0.909 | 0.964 | 0.655 | 0.735 | 0.573 | 0.74 | 0.632
7 | LCLC-97TM1 | 1.1 | – | 0.882 | 0.403 | 0.178 | – | 0.172 | 0.14 | 0.905 | 0.809 | 0.861 | 0.593 | – | 0.339 | 0.141 | 0.477 | 0.328 | 0.295 | – | –
8 | NCI-H1993 | 1.08 | 0.742 | 0.837 | 0.622 | 0.597 | 0.747 | 0.695 | 0.758 | 0.817 | 0.651 | 0.65 | 0.956 | 0.899 | 0.803 | 0.644 | 0.547 | 0.543 | 0.566 | 0.652 | 0.447
9 | HARA | 1.13 | 0.678 | 0.668 | 0.38 | 1.1 | 0.753 | 0.77 | 0.729 | 0.87 | 0.473 | 0.734 | 1.1 | 0.757 | 0.621 | 0.88 | 0.439 | 0.448 | 0.162 | 0.627 | 0.253
10 | NCI-H460 | 1.03 | 0.951 | 0.959 | 0.799 | 0.779 | 0.84 | 0.782 | 0.899 | 1.04 | 1.07 | 1.15 | 0.91 | 0.866 | 0.755 | 0.865 | 0.523 | 0.583 | 0.414 | 0.961 | 0.525
11 | EKVX | 1.11 | 0.617 | 0.864 | 0.717 | 1.15 | 0.869 | 0.711 | 0.677 | 0.783 | 0.408 | 0.411 | 1.15 | 0.819 | 0.653 | 0.895 | 0.22 | 0.185 | 0.203 | 0.435 | 0.167
12 | NCI-H1755 | 1.03 | 0.953 | 1.05 | 1.16 | 1.02 | 1.04 | 1.06 | 1.13 | 0.945 | 0.901 | 1.07 | 0.89 | 0.837 | 0.929 | 0.924 | 0.643 | 0.637 | 0.586 | 0.911 | 0.601
13 | NCI-H2087 | 1.04 | 0.596 | 0.875 | 0.466 | 0.991 | 0.75 | 0.608 | 0.408 | 1.22 | 0.741 | 0.806 | 0.88 | 0.793 | 0.853 | 0.428 | 0.515 | 0.431 | 0.223 | – | –
14 | H3255 | 1.05 | 0.877 | 0.946 | 0.906 | 1.09 | 0.944 | 0.903 | 0.991 | 1.02 | 0.746 | 0.97 | 0.888 | 0.701 | 0.883 | 0.864 | 0.355 | 0.31 | 0.359 | 0.549 | 0.353
